Measured values published in patent US4761414A, “Substituted 1H-pyrimido[1,2-a-]-pyrido[3,4-e]pyrazine 6 oxides” (G. D. Searle & Co., priority 1986, dated 1988).
Values after ≈ are worked out from the molar mass of the structure shown. Where two headings read alike, the source gives them in different places.

Assays:
B. fragilis NCTC 9343 = test: MIC/MBC against Bacteroides fragilis strain B; format: cell-based; settings: for MBC: NCTC9343, 99.9% reduction in viable count; for MIC: NCTC9343, 48 h, 48 hours, 37° C., anaerobic
Description: (§1) The screening panel utilized in this Example consisted of 5 strains of Bacteroides fragilis. All assays were carried out in 96-well microtitre plates. If an isolate was obtained from either a culture collection or clinical source, the isolate was immediately inoculated into Wilkens-Chalgren broth (Oxoid) and incubated at 37° C. in an anaerobic chamber in an atmosphere of 85% nitrogen, 10% carbon dioxide, and 5% hydrogen for 48 hours. At the end of this time, the viable count was about 10^12 organisms/ml broth. A 1 ml aliquot of each culture was placed in an ampoule and quick frozen in acetone-dry ice mixture and stored in liquid nitrogen. When an inoculum was utilized in an assay, one of the ampoules was thawed and diluted with fresh broth to yield a suspension having a count of 5×10^5 organisms/ml. A 100 μl aliquot of this suspension was inoculated into each well of the microtitre plate. A 2 mg sample of the test compound was dissolved in 0.2 ml of a suitable solvent such as dimethylsulfoxide, polyethylene glycol 200 or methanol. […] After addition of the test solution the final inoculum level was 10^5 cells/ml. The plates were incubated for 48 hours at 37° C. in the anaerobic chamber. The Minimum Inhibitory Concentration (MIC) was read visually. The MIC is defined as the lowest concentration at which there is no detectable growth. The Minimum Bactericidal Concentration (MBC) was determined by taking 50 μl aliquot from each well and placing it in fresh medium. […] The strains of Bacteroides fragilis utilized in the above procedure are identified by letter in accordance with the following legend: |B B. fragilis NCTC 9343

B. fragilis 23745 = settings: Bacteroides fragilis, 23745, in Mus musculus, po, 48 h, log CFU/ml liver homogenate, test compound
B. fragilis NCTC 10581 = test: MIC/MBC against Bacteroides fragilis strain A (96-well microtitre plates, anaerobic chamber); format: cell-based; settings: Bacteroides fragilis; for MBC: NCTC10581, 99.9% reduction in viable count; for MIC: NCTC10581, 48 h, 48 hours, 37° C., anaerobic
Description: as §1, with “|A” for “|B”, “10581” for “9343”

[1] = tested on: Campylobacter fetus ss. jejuni ATCC 29428; test: MIC vs panel of anaerobes; format: cell-based; settings: ATCC29428, procedures of Example 40
[2] = tested on: Propionebacterium acnes NCTC 737; test: MIC vs panel of anaerobes; format: cell-based; settings: procedures of Example 40
P. anaerobius = test: MIC vs panel of anaerobes; format: cell-based; settings: Peptostreptococcus anaerobius, procedures of Example 40
[3] = tested on: B. melanogenicus ATCC 15032; test: MIC vs panel of anaerobes; format: cell-based; settings: procedures of Example 40
Peptostreptococcus = test: MIC vs panel of anaerobes; format: cell-based; settings: procedures of Example 40
[4] = tested on: Bacteroides melanogenicus NCTC 9336; test: MIC vs panel of anaerobes; format: cell-based; settings: NCTC9336, procedures of Example 40
Peptococcous magnus = test: MIC vs panel of anaerobes; format: cell-based; settings: procedures of Example 40
[5] = read-out: DOSE GIVING 1 LOG REDUCTION (molar), p.o., after infection and twice daily for 2 days
[6] = read-out: DOSE GIVING 1 LOG REDUCTION, p.o., after infection and twice daily for 2 days

SMILES	MBC (B. fragilis NCTC 9343) [µg/mL]	MIC (B. fragilis NCTC 9343) [µg/mL]	ED (1 log reduction) (B. fragilis 23745; [5]) [µmol/kg]	ED (1 log reduction) (B. fragilis 23745; [6]) [mg/kg]	MBC (B. fragilis NCTC 10581) [µg/mL]	MIC (B. fragilis NCTC 10581) [µg/mL]	MIC [1] [µg/mL]	MIC [2] [µg/mL]	MIC (P. anaerobius) [µg/mL]	MIC [3] [µg/mL]	MIC (Peptostreptococcus) [µg/mL]	MIC [4] [µg/mL]	MIC (Peptococcous magnus) [µg/mL]
CC1(C)CN=C2C(c3ccc(F)cc3)=[N+]([O-])c3cnccc3N2C1 [Example 33, 2,3-Dihydro-2,2-dimethyl-5-(4-fluorophenyl)-1H-pyrimido[1,2-a]pyrido[3,4-e]pyrazine 6-oxide]	< 0.8	< 0.8	2.85	0.9	< 0.8	< 0.8	–	–	–	–	–	–	–
CC1(C)CN=C2C(c3ccc(F)cc3)=[N+]([O-])c3cccnc3N2C1 [Example 31, 2,3-Dihydro-2,2-dimethyl-5-(4-fluorophenyl)-1H-pyrimido[1,2-a]pyrido[3,2-e]pyrazine 6-oxide]	< 0.8	< 0.8	3	1	< 0.8	< 0.8	100 (≈ 308 µM)	> 100	100 (≈ 308 µM)	> 100	–	–	–
COc1ccc(C2=[N+]([O-])c3cccnc3N3CC(C)(C)CN=C23)cc1OC [Example 22, 2,3-Dihydro-5-(3,4-dimethoxyphenyl)-2,2-dimethyl-1H-pyrimido[1,2-a]pyrido[3,2-e]pyrazine 6-oxide]	< 0.8	< 0.8	7.3	2.7	1.5 (≈ 4.09 µM)	1.5 (≈ 4.09 µM)	50 (≈ 136 µM)	> 100	–	–	100 (≈ 273 µM)	> 100	–
CC1CN=C2C(c3ccccc3)=[N+]([O-])c3cccnc3N2C1 (stereo not shown) [Example 32, 2,3-Dihydro-2-methyl-5-phenyl-1H-pyrimido[1,2-a]pyrido[3,2-e]pyrazine 6-oxide]	1.5 (≈ 5.13 µM)	1.5 (≈ 5.13 µM)	3.3	0.95	< 0.8	< 0.8	–	–	–	–	–	–	< 0.8
CCC1(C)CN=C2C(c3ccccc3)=[N+]([O-])c3cccnc3N2C1 (stereo not shown) [Example 24, 2,3-Dihydro-2-ethyl-2-methyl-5-phenyl-1H-pyrimido[1,2-a]pyrido[3,2-e]pyrazine 6-oxide]	< 0.8	< 0.8	6.8	2.2	< 0.8	< 0.8	50 (≈ 156 µM)	100 (≈ 312 µM)	100 (≈ 312 µM)	100 (≈ 312 µM)	–	–	–
[O-][N+]1=C(c2ccccc2)C2=NCC3(CCCCC3)CN2c2ncccc21 [Example 29, Spiro[cyclohexane-1,2'-[2,3]-dihydro-[5]-phenyl-[1H]pyrimido[1,2-a]pyrido[3,2-e]pyrazine [6]-oxide]]	< 0.8	< 0.8	10.1	3.5	–	–	50 (≈ 144 µM)	> 100	< 0.8	100 (≈ 289 µM)	–	–	< 0.8
CCC1(CC)CN=C2C(c3ccccc3)=[N+]([O-])c3cccnc3N2C1 [Example 26, 2,3-Dihydro-2,2-diethyl-5-phenyl-1H-pyrimido[1,2-a]pyrido[3,2-e]pyrazine 6-oxide]	1.5 (≈ 4.49 µM)	1.5 (≈ 4.49 µM)	10.1	3.4	< 0.8	< 0.8	50 (≈ 150 µM)	100 (≈ 299 µM)	50 (≈ 150 µM)	100 (≈ 299 µM)	–	–	12.5 (≈ 37.4 µM)
Cc1ccc(C2=[N+]([O-])c3cnccc3N3CC(C)(C)CN=C23)cc1 [Example 19, 2,3-Dihydro-2,2-dimethyl-5-(4-methylphenyl)-1H-pyrimido[1,2-a]pyrido[3,4-e]pyrazine 6-oxide]	1.5 (≈ 4.68 µM)	< 0.8	4.6	1.5	1.5 (≈ 4.68 µM)	1.5 (≈ 4.68 µM)	–	–	–	–	–	–	< 0.8
